Like-named read-outs stand apart in the source and are kept apart here.

One assay has as its system NF-κB pathway. In words: Reporter gene expression assay in THP1-Dual cells, NFkB axis (secreted SEAP). The format is cell-based, human. Conditions: read-out: THP-NFKB activity (EC50 range). On the procedure:
(§1) THP1-Dual™ cells (Invivogen) were derived from the human THP-1 monocyte cell line by stable integration of two inducible reporter constructs. As a result, THP1-Dual™ cells allow the simultaneous study of the NF-κB pathway, by monitoring the activity of secreted SEAP, and the IRF pathway, by assessing the activity of a secreted luciferase (Lucia). […] THP1-Dual™ cells were seeded in 384-well plates in growth medium and stimulated with novel compounds. After […] of stimulation supernatant were removed and reporter proteins were readily measured in the cell culture supernatant using QUANTI-Blue™ (Invivogen), a SEAP detection reagent, and QUANTI-Luc™ (Invivogen), a luciferase detection reagent on a Spectramax i3X luminometer.
(In general: Reporter assays use an easily measured gene product as a stand-in for the process of interest.)

The target of a further assay is T1, hSTING(H232) (Homo sapiens, UniProt Q86WV6).
T1 construct: host or cells: HEK293T
T1 sequence (Q86WV6 whole entry): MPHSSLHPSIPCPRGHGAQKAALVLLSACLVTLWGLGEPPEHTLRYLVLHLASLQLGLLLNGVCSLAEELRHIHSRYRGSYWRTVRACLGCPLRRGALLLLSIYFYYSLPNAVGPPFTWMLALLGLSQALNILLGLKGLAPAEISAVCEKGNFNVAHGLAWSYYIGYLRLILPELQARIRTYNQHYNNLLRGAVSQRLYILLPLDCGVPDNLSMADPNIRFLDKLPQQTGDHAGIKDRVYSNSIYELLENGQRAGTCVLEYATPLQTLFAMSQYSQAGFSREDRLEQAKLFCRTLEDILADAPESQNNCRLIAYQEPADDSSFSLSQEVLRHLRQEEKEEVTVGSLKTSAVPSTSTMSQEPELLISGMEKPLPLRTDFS
In words: Luciferase reporter assay in HEK293T-hSTING-Luciferase cells, H232 polymorph. The format is cell-based. As to conditions: 20 hr stimulation, read-out: H232 activity (EC50 range). The source says: (§2) • a) Stable STING expressing cells—Stable HEK293T STING-expressing cell lines were generated using plasmids purchased from Invivogen, Calif., USA, that contain STING cDNA cloned into the pUNO-1 vector under hEF1-HTLV promoter and containing the Blasticidin selection cassette. The plasmids hSTING(R232), hSTING(H232), hSTING(HAQ) were directly procured from Invivogen while hSTING (AQ) and hSTING (Q) were derived from hSTING(HAQ) and hSTING (R232) plasmids respectively by using a PCR based site directed mutagenesis method. These vectors were individually transfected into HEK293T cells using Lipofectamine (Invitrogen) and transfected cells were selected under Blasticidin selection. These transfected cells were further subjected to clonal selection using the limiting dilution method to obtain clonally pure populations of HEK cells transfected with each of the above mentioned human STING variants. Only those clones were selected in which ligand independent activation of STING was minimal. • b) Stable Luciferase reporter gene expressing cells—Stable HEK293T Luciferase reporter gene expressing cell lines were generated using pCDNA4 plasmids under an IRF-inducible promoter. This promoter is comprised of five tandem interferon-stimulated response elements (ISRE) fused to an ISG54 minimal promoter. This vector was transfected into HEK293T cells using Lipofectamine (Invitrogen) and transfected cells were selected under Zeocin selection. These transfected cells were further subjected to clonal selection using the limiting dilution method to obtain clonally pure populations of HEK cells transfected the Luciferase reporter construct. Only those clones were selected in which ligand independent induction of luciferase was minimal.
(§3) 5×10^5 clonally selected HEK293T-hSTING-Luciferase cells were seeded in 384-well plates in growth medium and stimulated with novel compounds. After 20 hr of stimulation supernatant were removed and secretary reporter gene activity were measured using the Quanti-Luc detection system (Invivogen) on a Spectramax i3X luminometer.
(§4) The 5 major polymorphisms of human STING are shown in FIG. 1, with their prevalence in human populations indicated.

In another assay the target is T2, WT/R232 STING protein (Homo sapiens, UniProt Q86WV6, H232R).
T2 construct: host or cells: HEK293T
T2 sequence (Q86WV6 whole entry H232R): as the sequence (Q86WV6 whole entry) above, with H232R counted along it
Description: Luciferase reporter assay in HEK293T-hSTING-Luciferase cells, WT/R232. The format is cell-based. As to conditions: 20 hr stimulation, read-out: R232 Activity (EC50 range). The method in brief:
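Clonal HEK293T cells stably expressing human STING R232 plus an ISRE/ISG54-driven luciferase reporter, 5×10^5 per well, stimulated with compounds for 20 h. Secreted luciferase in supernatant measured by luminescence; […].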

The next assay addresses T3, hSTING(HAQ) (Homo sapiens, UniProt Q86WV6, G230A/H232R/R293Q/R71H).
T3 construct: host or cells: HEK293T
Description: Luciferase reporter assay in HEK293T-hSTING-Luciferase cells, HAQ polymorph. The format is cell-based. Conditions: 20 hr stimulation, read-out: HAQ activity (EC50 range).
Description: as §2, §3, §4

The test system of another assay is IRF pathway. Description: Reporter gene expression assay in THP1-Dual cells, IRF axis (secreted Lucia luciferase). The format is cell-based, human. Conditions: read-out: THP-IRF activity (EC50 range). The method, then: as §1

T3 sequence (Q86WV6 whole entry R71H/G230A/H232R/R293Q): as the sequence (Q86WV6 whole entry) above, with R71H, G230A, H232R, R293Q counted along it

Consider `O=C(NCc1cc2ccccc2o1)c1ccc2c(c1)N(Cc1ccccc1)C(=O)CS2` [Example 69, N-(benzofuran-2-ylmethyl)-4-benzyl-3-oxo-3,4-dihydro-2H-benzo[b-1,4]thiazine-6-carboxamide], for which the concentration for a half-maximal effect (EC50) was > 10 µM in the assay with NF-κB pathway (Homo sapiens, THP1-Dual); 1 to 10 µM on hSTING(H232); 1 to 10 µM at WT/R232 STING protein; 1 to 10 µM at hSTING(HAQ); > 10 µM with IRF pathway (Homo sapiens, THP1-Dual).

With `O=C(NCc1ccco1)c1ccc2c(c1)N(Cc1cccc(F)c1F)C(=O)CS2` [Example 82, 4-(2,3-difluorobenzyl)-N-(furan-2-ylmethyl)-3-oxo-3,4-dihydro-2H-benzo[b-1,4]thiazine-6-carboxamide], the EC50 is > 10 µM with NF-κB pathway (Homo sapiens, THP1-Dual); 1 to 10 µM on hSTING(H232); 1 to 10 µM on WT/R232 STING protein; 1 to 10 µM at hSTING(HAQ); > 10 µM with IRF pathway (Homo sapiens, THP1-Dual).

Regarding `Cc1cc(CN2C(=O)CSc3ccc(C(=O)NCc4ccco4)cc32)cc(C(F)(F)F)c1` [Example 83, N-(furan-2-ylmethyl)-4-(3-methyl-5-(trifluoromethyl)benzyl)-3-oxo-3,4-dihydro-2H-benzo[b-1,4]thiazine-6-carboxamide], the EC50 was > 10 µM in the assay with NF-κB pathway (Homo sapiens, THP1-Dual); > 10 µM at hSTING(H232); 1 to 10 µM at WT/R232 STING protein; > 10 µM on hSTING(HAQ); > 10 µM in the assay on IRF pathway (Homo sapiens, THP1-Dual).

On to `O=C(NCc1ccco1)c1ccc2c(c1)N(Cc1cc(F)cc(F)c1)C(=O)CS2` [Example 87, 4-(3,5-difluorobenzyl)-N-(furan-2-ylmethyl)-3-oxo-3,4-dihydro-2H-benzo[b][1,4] thiazine-6-carboxamide], for which the EC50 with NF-κB pathway (Homo sapiens, THP1-Dual) is > 10 µM; at hSTING(H232), 1 to 10 µM; on WT/R232 STING protein, < 1 µM; at hSTING(HAQ), > 10 µM; in the assay on IRF pathway (Homo sapiens, THP1-Dual), > 10 µM.

With `O=C(NCc1ccco1)c1ccc2c(c1)N(Cc1c(Cl)cccc1Cl)C(=O)CS2` [Example 93, 4-(2,6-dichlorobenzyl)-N-(furan-2-ylmethyl)-3-oxo-3,4-dihydro-2H-benzo[b-1,4]thiazine-6-carboxamide], the EC50 in the assay on NF-κB pathway (Homo sapiens, THP1-Dual) was > 10 µM; at hSTING(H232) it was 1 to 10 µM; on WT/R232 STING protein, 1 to 10 µM; on hSTING(HAQ), > 10 µM; in the assay with IRF pathway (Homo sapiens, THP1-Dual) it was > 10 µM.

In the case of `O=C(NCc1c(F)cc(F)cc1F)c1ccc2c(c1)N(Cc1c(F)cccc1Cl)C(=O)CS2` [Example 112, 4-(2-chloro-6-fluorobenzyl)-3-oxo-N-(2,4,6-trifluorobenzyl)-3,4-dihydro-2H-benzo[b-1,4]thiazine-6-carboxamide], the EC50 with NF-κB pathway (Homo sapiens, THP1-Dual) was > 10 µM; at hSTING(H232) it was < 1 µM; on WT/R232 STING protein it was < 1 µM; on hSTING(HAQ), < 1 µM; in the assay on IRF pathway (Homo sapiens, THP1-Dual), > 10 µM.

Turning to `O=C(NCc1ccccc1)c1ccc2c(c1)N(Cc1ccccc1)C(=O)CS2` [Example 118, N,4-dibenzyl-3-oxo-3,4-dihydro-2H-benzo[b-1,4]thiazine-6-carboxamide], the EC50 was > 10 µM in the assay on NF-κB pathway (Homo sapiens, THP1-Dual); 1 to 10 µM on hSTING(H232); 1 to 10 µM on WT/R232 STING protein; > 10 µM on hSTING(HAQ); > 10 µM in the assay with IRF pathway (Homo sapiens, THP1-Dual).

For the molecule `O=C(NCc1ccco1)c1ccc2c(c1)N(Cc1ccc(F)cc1)C(=O)CS2` [Example 120, 4-(4-fluorobenzyl)-N-(furan-2-ylmethyl)-3-oxo-3,4-dihydro-2H-benzo[b-1,4]thiazine-6-carboxamide], the EC50 with NF-κB pathway (Homo sapiens, THP1-Dual) is > 10 µM; on hSTING(H232), 1 to 10 µM; at WT/R232 STING protein, 1 to 10 µM; at hSTING(HAQ) it was > 10 µM; in the assay on IRF pathway (Homo sapiens, THP1-Dual), > 10 µM.

For the molecule `O=C(NCc1ccc(F)cc1)c1ccc2c(c1)N(Cc1c(F)cccc1Cl)C(=O)CS2` [Example 127, 4-(2-chloro-6-fluorobenzyl)-N-(4-fluorobenzyl)-3-oxo-3,4-dihydro-2H-benzo[b-1,4]thiazine-6-carboxamide], the EC50 in the assay with NF-κB pathway (Homo sapiens, THP1-Dual) is > 10 µM; at hSTING(H232), 1 to 10 µM; on WT/R232 STING protein, 1 to 10 µM; at hSTING(HAQ), 1 to 10 µM; with IRF pathway (Homo sapiens, THP1-Dual), > 10 µM.

Take `O=C(NCc1ccco1)c1ccc2c(c1)N(Cc1c(F)cccc1Cl)C(=O)CS2` [Example 131, 4-(2-chloro-6-fluorobenzyl)-N-(furan-2-ylmethyl)-3-oxo-3,4-dihydro-2H-benzo[b][1,4]thiazine-6-carboxamide]: the half-maximal effective concentration (EC50) in the assay on NF-κB pathway (Homo sapiens, THP1-Dual) is > 10 µM; at hSTING(H232), 1 to 10 µM; on WT/R232 STING protein, 1 to 10 µM; at hSTING(HAQ) it was > 10 µM; in the assay with IRF pathway (Homo sapiens, THP1-Dual) it was > 10 µM.

Take `CC1Sc2ccc(C(=O)NCc3c(F)cc(F)cc3F)cc2N(Cc2cnn(C)c2)C1=O` (stereo not shown) [Example 133, 2-methyl-N-2,4,6-trifluorobenzyl-4-[(1-methyl-1H-pyrazol-4-yl)methyl]-3-oxo-3,4-dihydro-2H-1,4-benzothiazine-6-carboxamide]: the EC50 in the assay on NF-κB pathway (Homo sapiens, THP1-Dual) is 1 to 10 µM; at hSTING(H232) it was 1 to 10 µM; at WT/R232 STING protein, 1 to 10 µM; at hSTING(HAQ), 1 to 10 µM; with IRF pathway (Homo sapiens, THP1-Dual), > 10 µM.

`CC1(C)Sc2ccc(C(=O)NCC3CCCCC3)cc2N(Cc2ccccc2F)C1=O` [Example 136, N-(cyclohexylmethyl)-4-(2-fluorobenzyl)-2,2-dimethyl-3-oxo-3,4-dihydro-2H-benzo[b-1,4]thiazine-6-carboxamide]: the half-maximal effective concentration (EC50) in the assay with NF-κB pathway (Homo sapiens, THP1-Dual) was > 10 µM; at hSTING(H232), > 10 µM; on WT/R232 STING protein, 1 to 10 µM; on hSTING(HAQ) it was > 10 µM; in the assay with IRF pathway (Homo sapiens, THP1-Dual), > 10 µM.

In the case of `CC1Sc2ccc(C(=O)NCc3c(F)cc(F)cc3F)cc2N(Cc2c(F)cccc2Cl)C1=O` (stereo not shown) [Example 138, 4-(2-chloro-6-fluorobenzyl)-2-methyl-3-oxo-N-(2,4,6-trifluorobenzyl)-3,4-dihydro-2H-benzo[b-1,4]thiazine-6-carboxamide], the EC50 was 1 to 10 µM in the assay with NF-κB pathway (Homo sapiens, THP1-Dual); < 1 µM on hSTING(H232); < 1 µM at WT/R232 STING protein; < 1 µM on hSTING(HAQ); 1 to 10 µM in the assay with IRF pathway (Homo sapiens, THP1-Dual).

Turning to `Cc1cccc(CNC(=O)c2ccc3c(c2)N(Cc2ccccc2F)C(=O)C(C)S3)c1` (stereo not shown) [Example 141, 4-(2-fluorobenzyl)-2-methyl-N-(3-methylbenzyl)-3-oxo-3,4-dihydro-2H-benzo[b-1,4]thiazine-6-carboxamide], the EC50 is 1 to 10 µM with NF-κB pathway (Homo sapiens, THP1-Dual); 1 to 10 µM on hSTING(H232); < 1 µM on WT/R232 STING protein; < 1 µM at hSTING(HAQ); 1 to 10 µM with IRF pathway (Homo sapiens, THP1-Dual).

With `Cc1cccc(CNC(=O)c2ccc3c(c2)N(Cc2cc(F)cc(F)c2)C(=O)C(C)S3)c1` (stereo not shown) [Example 144, 4-(3,5-difluorobenzyl)-2-methyl-N-(3-methylbenzyl)-3-oxo-3,4-dihydro-2H-benzo[b-1,4]thiazine-6-carboxamide], the EC50 in the assay on NF-κB pathway (Homo sapiens, THP1-Dual) was 1 to 10 µM; at hSTING(H232), 1 to 10 µM; at WT/R232 STING protein, < 1 µM; on hSTING(HAQ), 1 to 10 µM; in the assay with IRF pathway (Homo sapiens, THP1-Dual), 1 to 10 µM.

Consider `CC1Sc2ccc(C(=O)NCc3c(F)cc(F)cc3F)cc2N(Cc2cc(F)cc(F)c2)C1=O` (stereo not shown) [Example 145, 4-(3,5-difluorobenzyl)-2-methyl-3-oxo-N-(2,4,6-trifluorobenzyl)-3,4-dihydro-2H-benzo[b-1,4]thiazine-6-carboxamide], for which the EC50 was 1 to 10 µM in the assay with NF-κB pathway; < 1 µM on hSTING(H232); < 1 µM on WT/R232 STING protein; < 1 µM at hSTING(HAQ); 1 to 10 µM in the assay with IRF pathway.

Consider `C=CCC1Sc2ccc(C(=O)NCc3c(F)cc(F)cc3F)cc2N(Cc2c(F)cccc2Cl)C1=O` (stereo not shown) [Example 146, 2-allyl-4-(2-chloro-6-fluorobenzyl)-3-oxo-N-(2,4,6-trifluorobenzyl)-3,4-dihydro-2H-benzo[b-1,4]thiazine-6-carboxamide], for which the EC50 is > 10 µM in the assay with NF-κB pathway (Homo sapiens, THP1-Dual); 1 to 10 µM at hSTING(H232); < 1 µM at WT/R232 STING protein; 1 to 10 µM at hSTING(HAQ); > 10 µM in the assay on IRF pathway (Homo sapiens, THP1-Dual).

In general, EC50 refers to the concentration giving half of the maximal effect.

(Values after patent US20200138827A1, “SMALL MOLECULE MODULATORS OF HUMAN STING” (Curadev Pharma Limited, priority 2017, published 2020).)
